Measured values reported in article PMC12434667 (Journal of Medicinal Chemistry, 2025).
Values after ≈ are worked out from the molar mass of the structure shown.

Legend:
[1] = target: CDK6/CyclinD3 (Homo sapiens, UniProt Q00534); assay: Biochemical enzymatic inhibition assay; details: biochemical IC50 vs CDK2
[2] = target: CDK4/CyclinD3 (Homo sapiens, UniProt P11802); assay: Biochemical enzymatic inhibition assay; details: biochemical IC50 vs CDK2
[3] = system: panel of nonmutant kinases; assay: Kinomescan panel; type: binding; details: for kinases tested showing >90% inhibition versus control: 1 μM, panel of 403 nonmutant kinases; for kinomescan S(10) score: 1 uM, nonmutant kinases with % Ctrl <10 / nonmutant kinases tested
[4] = target: CDK1/cyclinB1 (Homo sapiens, UniProt P06493); details: biochemical IC50 vs CDK2
Chain of CDK1/cyclinB1 (P14635 whole entry): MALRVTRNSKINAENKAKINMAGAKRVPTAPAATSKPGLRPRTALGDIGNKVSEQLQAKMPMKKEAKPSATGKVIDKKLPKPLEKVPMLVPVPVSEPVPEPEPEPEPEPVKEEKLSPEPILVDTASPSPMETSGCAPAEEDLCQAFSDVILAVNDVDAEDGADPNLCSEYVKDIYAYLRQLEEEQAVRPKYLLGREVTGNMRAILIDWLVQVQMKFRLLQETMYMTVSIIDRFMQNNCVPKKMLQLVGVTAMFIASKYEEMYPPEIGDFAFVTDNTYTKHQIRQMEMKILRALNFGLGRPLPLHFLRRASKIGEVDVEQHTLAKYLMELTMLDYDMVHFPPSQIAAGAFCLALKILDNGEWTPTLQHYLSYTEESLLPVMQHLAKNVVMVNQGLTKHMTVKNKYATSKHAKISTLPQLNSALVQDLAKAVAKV
Chain of CDK1/cyclinB1 (P06493 whole entry): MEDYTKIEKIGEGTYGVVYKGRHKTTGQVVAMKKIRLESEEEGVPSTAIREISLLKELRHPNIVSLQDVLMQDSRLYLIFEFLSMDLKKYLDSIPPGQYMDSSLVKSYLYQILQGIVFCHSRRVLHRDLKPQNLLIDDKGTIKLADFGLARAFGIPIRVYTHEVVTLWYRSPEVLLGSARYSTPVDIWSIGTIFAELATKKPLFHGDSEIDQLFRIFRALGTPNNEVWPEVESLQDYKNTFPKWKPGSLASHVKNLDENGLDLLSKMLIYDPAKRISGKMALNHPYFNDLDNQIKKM

[5] = target: CDK9/CyclinT1 (Homo sapiens, UniProt P50750); assay: Biochemical enzymatic inhibition assay; details: biochemical IC50 vs CDK2
[6] = MDCK passive permeability; type: in vitro ADME, canine; details: dog, pH 7.4
[7] = Rat PK; type: in vivo; details: in vivo; for Vd / clearance / half-life: iv, 2 mg/kg; for bioavailability: oral, 10 mg/kg
[8] = LogD; type: physicochemical; details: 1-octanol/phosphate buffer, pH 7.4
[9] = Microsomal stability; type: in vitro ADME; details: rat, liver microsomes
[10] = Microsomal stability; type: in vitro ADME; details: human, liver microsomes
[11] = FaSSIF solubility; type: physicochemical; details: kinetic from dmso stock
[12] = target: CDK2 (Homo sapiens, UniProt P24941); assay: 14-hr AlphaLISA of CDK2 degradation in MKN1 CCNE1amp cells; type: cell-based; details: read-out: MKN1 CDK2 DC50
[13] = target: MDR1 (Homo sapiens, UniProt P08183); assay: MDCK-MDR1 efflux ratio; type: in vitro ADME; details: dog, MDCK-MDR1, pH 7.4
Chain of MDR1 (P08183 whole entry, species assumed): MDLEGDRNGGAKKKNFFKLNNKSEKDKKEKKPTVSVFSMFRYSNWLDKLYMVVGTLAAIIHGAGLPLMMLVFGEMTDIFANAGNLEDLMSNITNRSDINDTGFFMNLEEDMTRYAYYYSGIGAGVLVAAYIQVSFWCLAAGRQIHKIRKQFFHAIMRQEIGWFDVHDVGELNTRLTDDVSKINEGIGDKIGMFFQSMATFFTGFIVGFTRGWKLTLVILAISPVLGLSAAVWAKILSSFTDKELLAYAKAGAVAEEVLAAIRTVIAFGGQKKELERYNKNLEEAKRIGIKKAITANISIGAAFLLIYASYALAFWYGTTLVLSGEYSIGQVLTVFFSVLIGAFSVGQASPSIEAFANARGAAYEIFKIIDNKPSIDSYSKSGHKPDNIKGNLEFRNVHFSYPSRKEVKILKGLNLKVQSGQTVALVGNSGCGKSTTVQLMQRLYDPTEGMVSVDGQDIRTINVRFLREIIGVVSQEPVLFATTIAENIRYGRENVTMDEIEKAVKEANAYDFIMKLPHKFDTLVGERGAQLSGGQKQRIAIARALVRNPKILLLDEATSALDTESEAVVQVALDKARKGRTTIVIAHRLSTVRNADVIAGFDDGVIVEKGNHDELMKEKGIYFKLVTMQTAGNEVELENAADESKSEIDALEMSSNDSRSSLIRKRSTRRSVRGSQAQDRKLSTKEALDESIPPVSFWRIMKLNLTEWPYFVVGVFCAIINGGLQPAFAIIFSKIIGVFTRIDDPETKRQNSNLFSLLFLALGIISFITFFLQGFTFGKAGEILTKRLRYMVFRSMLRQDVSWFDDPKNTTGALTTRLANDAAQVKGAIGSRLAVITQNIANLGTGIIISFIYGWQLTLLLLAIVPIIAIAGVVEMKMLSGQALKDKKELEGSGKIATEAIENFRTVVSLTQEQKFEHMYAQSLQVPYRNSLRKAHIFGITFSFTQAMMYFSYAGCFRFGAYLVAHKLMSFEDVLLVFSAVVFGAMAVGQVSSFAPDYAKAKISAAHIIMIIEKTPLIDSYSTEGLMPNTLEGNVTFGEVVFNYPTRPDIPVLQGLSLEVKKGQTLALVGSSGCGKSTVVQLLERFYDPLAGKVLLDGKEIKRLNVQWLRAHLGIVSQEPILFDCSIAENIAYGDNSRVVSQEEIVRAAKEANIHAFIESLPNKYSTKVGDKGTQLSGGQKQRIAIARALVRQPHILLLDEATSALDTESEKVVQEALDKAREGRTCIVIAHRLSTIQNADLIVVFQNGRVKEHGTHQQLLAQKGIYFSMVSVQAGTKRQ

[14] = target: CDK2/CRBN (Homo sapiens, UniProt P24941+Q96SW2); assay: AlphaLisa ternary complex formation assay; type: binding; details: compound 28 used as 100% control
Chain of CDK2/CRBN (Q16531 whole entry): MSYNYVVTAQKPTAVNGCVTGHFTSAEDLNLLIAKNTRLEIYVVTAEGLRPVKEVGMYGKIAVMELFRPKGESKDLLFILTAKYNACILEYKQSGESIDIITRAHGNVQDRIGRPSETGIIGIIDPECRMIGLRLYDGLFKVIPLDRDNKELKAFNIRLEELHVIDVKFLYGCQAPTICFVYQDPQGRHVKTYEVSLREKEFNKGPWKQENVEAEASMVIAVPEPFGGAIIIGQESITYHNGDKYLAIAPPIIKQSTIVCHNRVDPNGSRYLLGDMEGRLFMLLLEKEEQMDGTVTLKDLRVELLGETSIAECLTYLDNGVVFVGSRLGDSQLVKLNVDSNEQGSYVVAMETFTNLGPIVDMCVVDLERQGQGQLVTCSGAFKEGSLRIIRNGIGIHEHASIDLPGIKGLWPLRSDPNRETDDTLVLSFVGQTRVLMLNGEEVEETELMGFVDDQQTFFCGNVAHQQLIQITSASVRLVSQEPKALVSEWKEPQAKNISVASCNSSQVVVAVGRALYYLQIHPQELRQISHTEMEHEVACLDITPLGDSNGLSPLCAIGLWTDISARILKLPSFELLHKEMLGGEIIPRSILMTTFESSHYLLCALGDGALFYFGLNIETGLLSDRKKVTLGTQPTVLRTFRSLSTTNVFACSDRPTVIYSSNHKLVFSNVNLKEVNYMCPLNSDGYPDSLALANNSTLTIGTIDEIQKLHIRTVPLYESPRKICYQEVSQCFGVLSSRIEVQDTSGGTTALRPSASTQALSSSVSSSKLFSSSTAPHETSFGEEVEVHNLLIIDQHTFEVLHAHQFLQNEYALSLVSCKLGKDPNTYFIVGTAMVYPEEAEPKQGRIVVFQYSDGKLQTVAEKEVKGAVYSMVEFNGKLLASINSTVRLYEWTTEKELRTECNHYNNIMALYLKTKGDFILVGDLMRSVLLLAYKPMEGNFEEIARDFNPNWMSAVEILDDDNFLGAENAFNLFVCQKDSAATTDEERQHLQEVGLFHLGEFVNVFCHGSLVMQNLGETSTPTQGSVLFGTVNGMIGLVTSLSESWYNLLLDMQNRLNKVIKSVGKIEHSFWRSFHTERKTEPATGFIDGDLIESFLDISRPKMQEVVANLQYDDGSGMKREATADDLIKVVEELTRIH
Chain of CDK2/CRBN (Q96SW2 40-442): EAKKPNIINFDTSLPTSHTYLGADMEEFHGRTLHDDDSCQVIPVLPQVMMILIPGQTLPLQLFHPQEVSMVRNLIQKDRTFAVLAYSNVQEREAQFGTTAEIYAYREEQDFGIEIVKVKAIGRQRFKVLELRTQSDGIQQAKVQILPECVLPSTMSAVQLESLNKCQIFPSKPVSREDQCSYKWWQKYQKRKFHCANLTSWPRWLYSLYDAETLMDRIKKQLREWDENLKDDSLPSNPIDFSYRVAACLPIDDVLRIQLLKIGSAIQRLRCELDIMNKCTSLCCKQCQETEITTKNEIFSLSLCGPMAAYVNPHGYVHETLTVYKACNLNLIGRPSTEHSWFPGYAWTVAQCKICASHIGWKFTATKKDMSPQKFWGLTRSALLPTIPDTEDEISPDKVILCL

[15] = target: CYP3A4 (Homo sapiens, UniProt P08684); assay: Cyp3A4 TDI; type: in vitro ADME
Chain of CYP3A4 (P08684 whole entry): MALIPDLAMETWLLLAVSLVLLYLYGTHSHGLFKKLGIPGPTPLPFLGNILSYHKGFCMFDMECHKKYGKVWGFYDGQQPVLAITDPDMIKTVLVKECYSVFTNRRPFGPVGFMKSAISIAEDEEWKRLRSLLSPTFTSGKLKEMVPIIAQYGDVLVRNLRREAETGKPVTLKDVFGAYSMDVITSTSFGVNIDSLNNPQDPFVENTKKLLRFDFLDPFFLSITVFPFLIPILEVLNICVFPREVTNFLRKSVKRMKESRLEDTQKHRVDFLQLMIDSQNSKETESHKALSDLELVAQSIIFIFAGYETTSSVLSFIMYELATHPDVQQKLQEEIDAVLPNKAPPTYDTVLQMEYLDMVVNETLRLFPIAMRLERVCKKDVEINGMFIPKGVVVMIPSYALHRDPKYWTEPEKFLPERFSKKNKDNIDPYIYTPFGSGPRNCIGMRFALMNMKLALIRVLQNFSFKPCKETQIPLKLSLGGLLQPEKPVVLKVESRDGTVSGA

[16] = system: HCC1569 tumor xenograft; assay: HCC1569 tumor xenograft efficacy; type: in vivo, mouse; details: 150 mg/kg PO BID, 28 days
[17] = CYP3A4 TDI (+NADPH), 30 min pre-incubation with NADPH
[18] = CYP3A4 TDI (-NADPH), 30 min pre-incubation without NADPH

Chain of CDK6/CyclinD3 (Q00534 whole entry): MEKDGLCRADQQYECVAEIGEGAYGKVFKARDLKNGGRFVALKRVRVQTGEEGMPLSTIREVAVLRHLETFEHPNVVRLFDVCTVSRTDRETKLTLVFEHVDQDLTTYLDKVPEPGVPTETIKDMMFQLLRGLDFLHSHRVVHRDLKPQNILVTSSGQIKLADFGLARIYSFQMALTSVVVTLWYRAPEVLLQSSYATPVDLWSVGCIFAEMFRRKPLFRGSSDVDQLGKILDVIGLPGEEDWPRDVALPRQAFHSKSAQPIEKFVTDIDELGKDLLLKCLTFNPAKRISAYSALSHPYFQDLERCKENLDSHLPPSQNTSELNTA
Chain of CDK6/CyclinD3 (P30281 whole entry partner): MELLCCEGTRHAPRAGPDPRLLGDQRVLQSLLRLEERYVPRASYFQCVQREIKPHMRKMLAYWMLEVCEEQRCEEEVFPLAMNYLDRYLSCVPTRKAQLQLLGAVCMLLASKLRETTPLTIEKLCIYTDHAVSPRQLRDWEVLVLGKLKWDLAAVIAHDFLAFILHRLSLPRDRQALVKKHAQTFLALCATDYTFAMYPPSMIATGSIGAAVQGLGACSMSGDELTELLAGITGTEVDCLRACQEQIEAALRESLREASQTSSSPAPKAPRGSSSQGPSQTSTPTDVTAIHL
Chain of CDK4/CyclinD3 (P11802 whole entry): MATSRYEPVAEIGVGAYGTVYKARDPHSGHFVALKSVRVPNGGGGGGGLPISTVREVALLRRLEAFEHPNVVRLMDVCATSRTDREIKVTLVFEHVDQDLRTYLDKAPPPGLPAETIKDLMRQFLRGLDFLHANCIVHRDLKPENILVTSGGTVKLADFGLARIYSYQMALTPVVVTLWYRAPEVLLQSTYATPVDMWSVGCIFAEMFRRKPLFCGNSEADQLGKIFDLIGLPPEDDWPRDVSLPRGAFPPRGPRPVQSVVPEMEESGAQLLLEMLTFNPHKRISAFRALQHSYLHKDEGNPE
Chain of CDK4/CyclinD3 (P30281 whole entry partner): as the sequence (P30281 whole entry partner) above

In the case of `CNS(=O)(=O)c1ccc(Nc2ncc3cc(Cl)c(=O)n(C4CCCC4)c3n2)c(C)c1` [Compound 1], the “selectivity over CDK6” value [1] is reported as greater than 124 fold, the “selectivity over CDK4” value [2] is reported as greater than 44 fold and the “kinases tested showing >90% inhibition versus control” value [3] is reported as 18/403.

In the case of `CNS(=O)(=O)c1ccc(Nc2ncc(C(F)(F)F)c([C@H]3CC[C@@](C)(O)CC3)n2)c(C)c1` [Compound 3], the “selectivity vs CDK1” value [4] is reported as 47 fold, the “selectivity vs CDK9” value [5] is reported as greater than 357 fold and the “kinases tested showing >90% inhibition versus control” value [3] is reported as 2/403.

With `CNS(=O)(=O)c1ccc(Nc2ncc(C(F)(F)F)c([C@H]3CC[C@](C)(O)CC3)n2)c(C)c1` [Compound 4, trans-4-[[4-(4-Hydroxy-4-methyl-cyclohexyl)-5-(trifluoromethyl)pyrimidin-2-yl]amino]-N,3-dimethyl-benzenesulfonamide] the “selectivity vs CDK1” value [4] was 16 fold.

In the case of `CNS(=O)(=O)c1ccc(Nc2ncc(C(F)(F)F)c(N3CCC[C@](C)(O)C3)n2)c(C)c1` [Compound 7], the “selectivity vs CDK1” value [4] is reported as 42 fold, the “selectivity vs CDK9” value [5] is reported as greater than 5000 fold and the “kinases tested showing >90% inhibition versus control” value [3] is reported as 4/403.

Work on `Cc1cc(S(=O)(=O)NCCO[C@H]2CC[C@H](CN3CCC(c4ccc5c(c4)n(C)c(=O)n5C4CCC(=O)NC4=O)CC3)CC2)ccc1Nc1ncc(C(F)(F)F)c([C@H]2CC[C@@](C)(O)CC2)n1` (stereo partly shown) [Compound 8] yielded a Papp A→B at 120 min, 1 µM [6] of 1 ×10⁻⁶ cm/s, a Vd [7] of 15 L/kg and a clearance [7] of 59 mL/min/kg. It also gave a half-life [7] of 5.7 h, a bioavailability [7] of 1% and a logD at 1 h [8] of 4.1. For the same compound, the CLint scaled at 1 µM [9] was less than 21 mL/min/kg, the CLint scaled at 1 µM [10] was 79 mL/min/kg and the solubility at 2 h [11] was 153 µM (≈ 142 µg/mL). It also gave a DC50 [12] of 4.9 nM and an efflux ratio at 120 min, 1 μM [13] greater than 30.

With `Cc1cc(S(=O)(=O)NCCO[C@H]2CC[C@H](CN3CCC(c4ccc5c(c4F)n(C)c(=O)n5C4CCC(=O)NC4=O)CC3)CC2)ccc1Nc1ncc(C(F)(F)F)c([C@H]2CC[C@@](C)(O)CC2)n1` (stereo partly shown) [Compound 9] the Papp A→B at 120 min, 1 µM [6] was 2 ×10⁻⁶ cm/s, the Vd [7] was 11 L/kg and the clearance [7] was 45 mL/min/kg. It also gave a half-life [7] of 4.9 h, a bioavailability [7] of 5% and a logD at 1 h [8] of 4.6. For the same compound, the CLint scaled at 1 µM [9] was 26 mL/min/kg, the CLint scaled at 1 µM [10] was 102 mL/min/kg and the solubility at 2 h [11] was 173 µM (≈ 163 µg/mL). The DC50 [12] was 12 nM and the efflux ratio at 120 min, 1 μM [13] was greater than 54.

In the case of `[2H][C@@](C)(COC1CCC(CN2CCN(c3ccc4c(c3F)n(C)c(=O)n4C3CCC(=O)NC3=O)CC2)CC1)NS(=O)(=O)c1ccc(Nc2ncc(C(F)(F)F)c(N3CCC[C@](C)(O)C3)n2)c(C)c1` (stereo partly shown) [Compound 13], the Papp A→B at 120 min, 1 µM [6] is reported as 2.3 ×10⁻⁶ cm/s, the logD at 1 h [8] is reported as 4.6 and the CLint scaled at 1 µM [9] is reported as 25 mL/min/kg. For the same compound, the CLint scaled at 1 µM [10] was 143 mL/min/kg, the solubility at 2 h [11] was 62 µM (≈ 59.5 µg/mL) and the DC50 [12] was 1 nM. It also gave an efflux ratio at 120 min, 1 μM [13] of 91.

For `Cc1cc(S(=O)(=O)N[C@H]2CC[C@H](N3CCN(CC4CCN(c5cccc6c5n(C)c(=O)n6C5CCC(=O)NC5=O)CC4)CC3)CC2)ccc1Nc1ncc(C(F)(F)F)c(N2CCC[C@](C)(O)C2)n1` (stereo partly shown) [Compound 14], the “CDK2/CRBN/degrader ternary complex normalized AUC” value [14] was 10.

In the case of `Cc1cc(S(=O)(=O)NC2CC(N3CCN(CC4CCN(c5cccc6c5n(C)c(=O)n6C5CCC(=O)NC5=O)CC4)CC3)C2)ccc1Nc1ncc(C(F)(F)F)c(N2CCC[C@](C)(O)C2)n1` (stereo partly shown) [Compound 15], the “CDK2/CRBN/degrader ternary complex normalized AUC” value [14] is reported as 9.5.

In the case of `Cc1cc(S(=O)(=O)N[C@]2(C)C[C@@H](N3CCN(CC4CCN(c5ccc6c(c5F)n(C)c(=O)n6C5CCC(=O)NC5=O)CC4)CC3)C2)ccc1Nc1ncc(C(F)(F)F)c(N2CCC[C@](C)(O)C2)n1` (stereo partly shown) [Compound 17], the “CDK2/CRBN/degrader ternary complex normalized AUC” value [14] is reported as 13.

In the case of `Cc1cc(S(=O)(=O)NC2CC(N3CCN(CC4CCN(c5cccc6c5n(C)c(=O)n6C5CCC(=O)NC5=O)CC4)C4(CC4)C3)C2)ccc1Nc1ncc(C(F)(F)F)c(N2CCC[C@](C)(O)C2)n1` (stereo partly shown) [Compound 19], the “CDK2/CRBN/degrader ternary complex normalized AUC” value [14] is reported as 27.

For `Cc1cc(S(=O)(=O)NC2CC(N3CC[C@@H](OC4CN(c5cccc6c5n(C)c(=O)n6C5CCC(=O)NC5=O)C4)[C@H](F)C3)C2)ccc1Nc1ncc(C(F)(F)F)c(N2CCC[C@](C)(O)C2)n1` (stereo partly shown) [Compound 20], the “CDK2/CRBN/degrader ternary complex normalized AUC” value [14] was 7.9.

In the case of `Cc1cc(S(=O)(=O)NC2CC(N3CCN(CC4CCN(c5ccc(NC6CCC(=O)NC6=O)cc5C)CC4)CC3)C2)ccc1Nc1ncc(C(F)(F)F)c(N2CCC[C@](C)(O)C2)n1` (stereo partly shown) [Compound 21], the “CDK2/CRBN/degrader ternary complex normalized AUC” value [14] is reported as 4.0.

In the case of `Cc1cc(S(=O)(=O)N[C@H]2C[C@H](CN3CC(c4ccc(C5CCC(=O)NC5=O)c(Cl)c4)C3)C2)ccc1Nc1ncc(C(F)(F)F)c(N2CCC[C@](C)(O)C2)n1` (stereo partly shown) [Compound 22], the “CDK2/CRBN/degrader ternary complex normalized AUC” value [14] is reported as 0.

For `Cc1cc(S(=O)(=O)N[C@H]2C[C@H](CN3CCN(c4ccc(C5CCC(=O)NC5=O)c(Cl)c4)CC3)C2)ccc1Nc1ncc(C(F)(F)F)c(N2CCC[C@](C)(O)C2)n1` (stereo partly shown) [Compound 23], the “CDK2/CRBN/degrader ternary complex normalized AUC” value [14] was 4.8.

With `Cc1cc(S(=O)(=O)N[C@H]2CC[C@H](CN3CCN(c4ccc(C5CCC(=O)NC5=O)c(Cl)c4)CC3)CC2)ccc1Nc1ncc(C(F)(F)F)c(N2CCC[C@](C)(O)C2)n1` (stereo partly shown) [Compound 24] the “CDK2/CRBN/degrader ternary complex normalized AUC” value [14] was 92 and the “CYP3A4 inhibition (in words)” value [15] was “time- and NADPH-dependent inhibition”.

For `Cc1cc(S(=O)(=O)NC2CCC(CN3CCN(c4cccc(C5CCC(=O)NC5=O)c4)CC3)CC2)ccc1Nc1ncc(C(F)(F)F)c(N2CCC[C@](C)(O)C2)n1` (stereo partly shown) [Compound 26], the “CDK2/CRBN/degrader ternary complex normalized AUC” value [14] was 0.

With `Cc1cc(S(=O)(=O)N[C@H]2CC[C@H](CN3CCN(c4ccc(NC5CCC(=O)NC5=O)cc4F)CC3)CC2)ccc1Nc1ncc(C(F)(F)F)c(N2CCC[C@](C)(O)C2)n1` (stereo partly shown) [Compound 27] the “CDK2/CRBN/degrader ternary complex normalized AUC” value [14] was 35.

With `Cc1cc(S(=O)(=O)N[C@H]2CC[C@H](CN3CCN(c4cccc(NC5CCC(=O)NC5=O)c4)CC3)CC2)ccc1Nc1ncc(C(F)(F)F)c(N2CCC[C@](C)(O)C2)n1` (stereo partly shown) [Compound 28] the “CDK2/CRBN/degrader ternary complex normalized AUC” value [14] was 100.

With `Cc1cc(S(=O)(=O)N[C@H]2CC[C@H](CN3CCN(c4ccc(C5CCC(=O)NC5=O)cc4F)CC3)CC2)ccc1Nc1ncc(C(F)(F)F)c(N2CCC[C@](C)(O)C2)n1` (stereo partly shown) [Compound 29] the “kinomescan S(10) score” value [3] was 0.007.

For `C[C@]1(O)CCCN(c2nc(Nc3ccc(S(=O)(=O)N[C@H]4CC[C@H](CN5CCN(c6ccc(C7CCC(=O)NC7=O)cc6F)CC5)CC4)cc3F)ncc2C(F)(F)F)C1` (stereo partly shown) [Compound 31], the IC50 [15, 17] was greater than 10000 nM, the IC50 [15, 18] was greater than 10000 nM and the “kinomescan S(10) score” value [3] was 0.

With `C[C@]1(O)CCCN(c2nc(Nc3ccc(S(=O)(=O)N[C@H]4CC[C@H](CN5CCN(c6ccc(C7CCC(=O)NC7=O)cc6F)CC5)CC4)cc3Cl)ncc2C(F)(F)F)C1` (stereo partly shown) [Compound 32] the IC50 [15, 17] was greater than 10000 nM, the IC50 [15, 18] was greater than 10000 nM and the “kinomescan S(10) score” value [3] was 0.

With `COCc1cc(C(=O)Nc2cc([C@H]3CC[C@@H](OC(=O)NC(C)C)C3)[nH]n2)n(C)n1` [PF-07104091, reference compound] the antitumor activity [16] was “stable disease (30 to −30% is stable disease (0% = Tumor Stasis))” and the “day 28 %dTV (mean ± SEM)” value ([16]; HCC1569 xenograft mice) was 4 ± 15%.
